According to publication PMC4503722, “Novel Phenotypic Outcomes Identified for a Public Collection of Approved Drugs from a Publicly Accessible Panel of Assays” (PLoS ONE, 2015):

Tests used:
INS-1E cells [1] = experiment: cells; assay type: cell-based, rat; conditions: 5 mM glucose; for 5mMGluc_INS1E SecretionMod IC50/EC50: assay number 8
INS-1E cells [2] = assay type: cell-based, rat; conditions: assay number 9; 0.1 mM glucose
[3] = tested on: nuclear β-catenin in C2C12 cells; experiment: cells; assay type: cell-based; conditions: concentration response
SW480 = experiment: cells; assay type: cell-based; conditions: basal
NCI-H716 cells = experiment: cells; assay type: cell-based, Human; conditions: concentration response
RKO = experiment: cells; assay type: cell-based; conditions: basal
STC-1 cell line = assay type: cell-based, mouse; conditions: concentration response
hGSK3b = biological target: T1, hGSK3b (Homo sapiens, UniProt P49841); experiment: Cerep LANCE kinase assay hGSK3b (S1 assay 34); assay type: biochemical
T1 construct: purchased Cerep (LANCE kinase assay platform, contract assay)

hKDR = biological target: T2, hKDR (Homo sapiens, UniProt P35968); experiment: Cerep LANCE kinase assay hKDR (S1 assay 32); assay type: biochemical
T2 construct: purchased Cerep (LANCE kinase assay platform, contract assay)

[4] = tested on: endothelial tube formation in co-cultures of ECFCs and ADSCs treated with VEGF; experiment: cells; assay type: cell-based, human
SNU-C1 = experiment: cells; assay type: cell-based; conditions: basal
HCT116 = experiment: cells; assay type: cell-based; conditions: basal
[5] = tested on: alkaline phosphatase (ALP) activity in C2C12 cells; assay type: cell-based; conditions: concentration response
hJAK2 = biological target: T3, hJAK2 (Homo sapiens, UniProt O60674); experiment: Cerep LANCE kinase assay hJAK2 (S1 assay 33); assay type: biochemical
T3 construct: purchased Cerep (LANCE kinase assay platform, contract assay)

Colo320 = experiment: cells; assay type: cell-based; conditions: basal
hFLT3 = biological target: T4, hFLT3 (Homo sapiens, UniProt P36888); experiment: Cerep LANCE kinase assay hFLT3 (S1 assay 35); assay type: biochemical
T4 construct: purchased Cerep (LANCE kinase assay platform, contract assay)

HeLa cells = experiment: cells; assay type: cell-based
HT-29 = experiment: cells; assay type: cell-based; conditions: basal
DLD-1 = experiment: cells; assay type: cell-based; conditions: basal
[6] = tested on: ECFC/ADSC co-culture cell nuclei number
hp70S6K1 (RPS6KB1) = biological target: T5, hp70S6K1 (RPS6KB1) (Homo sapiens, UniProt P23443); experiment: Cerep LANCE kinase assay hp70S6K1 (S1 assay 31); assay type: biochemical
T5 construct: purchased Cerep (LANCE kinase assay platform, contract assay)

[7] = tested on: HCT116 cells treated with a GSK3β inhibitor; experiment: cells; assay type: cell-based; conditions: GSK3b inh pretreated
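Wherever 5mMGluc INS1E SecretionMod IC50/EC50 is given: secreted insulin quantified by homogeneous immunoassay.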
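Wherever IC50/EC50, 5mMGluc INS1E SecretionMod (assay number 8) is given: secreted insulin quantified by homogeneous immunoassay.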

T4 sequence (P36888 27-993): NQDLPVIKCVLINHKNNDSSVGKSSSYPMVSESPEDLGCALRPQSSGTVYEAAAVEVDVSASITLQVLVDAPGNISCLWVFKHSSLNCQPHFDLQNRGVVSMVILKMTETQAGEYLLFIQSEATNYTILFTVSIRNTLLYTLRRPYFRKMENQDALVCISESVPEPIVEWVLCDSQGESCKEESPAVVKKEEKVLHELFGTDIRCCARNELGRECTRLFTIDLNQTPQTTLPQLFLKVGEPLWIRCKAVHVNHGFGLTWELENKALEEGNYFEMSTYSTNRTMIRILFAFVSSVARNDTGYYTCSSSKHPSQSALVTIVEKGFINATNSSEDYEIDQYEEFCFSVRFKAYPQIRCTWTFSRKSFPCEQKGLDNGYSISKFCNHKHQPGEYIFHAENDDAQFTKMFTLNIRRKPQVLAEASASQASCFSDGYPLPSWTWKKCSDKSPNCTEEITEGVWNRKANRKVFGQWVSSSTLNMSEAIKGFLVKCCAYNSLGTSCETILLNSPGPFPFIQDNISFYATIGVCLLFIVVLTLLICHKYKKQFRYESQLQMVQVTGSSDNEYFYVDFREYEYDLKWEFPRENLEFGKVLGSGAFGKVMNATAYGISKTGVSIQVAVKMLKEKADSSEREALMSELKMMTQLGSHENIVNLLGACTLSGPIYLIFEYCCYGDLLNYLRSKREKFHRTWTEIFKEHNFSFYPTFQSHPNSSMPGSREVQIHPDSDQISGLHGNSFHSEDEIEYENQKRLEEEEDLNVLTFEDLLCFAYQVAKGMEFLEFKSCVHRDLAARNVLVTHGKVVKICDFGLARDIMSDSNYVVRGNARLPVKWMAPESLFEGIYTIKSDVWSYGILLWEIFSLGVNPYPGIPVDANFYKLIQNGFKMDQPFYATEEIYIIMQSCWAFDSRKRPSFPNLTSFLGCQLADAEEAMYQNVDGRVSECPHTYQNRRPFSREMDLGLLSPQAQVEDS
T1 sequence (P49841 whole entry): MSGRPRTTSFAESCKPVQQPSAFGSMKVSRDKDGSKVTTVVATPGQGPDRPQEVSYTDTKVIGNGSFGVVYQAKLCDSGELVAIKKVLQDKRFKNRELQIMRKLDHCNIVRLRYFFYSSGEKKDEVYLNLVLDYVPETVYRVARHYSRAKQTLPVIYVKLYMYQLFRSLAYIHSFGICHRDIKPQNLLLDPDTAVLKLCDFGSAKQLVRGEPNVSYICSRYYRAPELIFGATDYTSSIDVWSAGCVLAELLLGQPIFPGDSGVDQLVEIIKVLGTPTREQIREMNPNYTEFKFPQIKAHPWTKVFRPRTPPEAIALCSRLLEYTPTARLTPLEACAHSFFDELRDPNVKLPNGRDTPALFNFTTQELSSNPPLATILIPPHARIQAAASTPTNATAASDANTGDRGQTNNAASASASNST
T2 sequence (P35968 20-1356): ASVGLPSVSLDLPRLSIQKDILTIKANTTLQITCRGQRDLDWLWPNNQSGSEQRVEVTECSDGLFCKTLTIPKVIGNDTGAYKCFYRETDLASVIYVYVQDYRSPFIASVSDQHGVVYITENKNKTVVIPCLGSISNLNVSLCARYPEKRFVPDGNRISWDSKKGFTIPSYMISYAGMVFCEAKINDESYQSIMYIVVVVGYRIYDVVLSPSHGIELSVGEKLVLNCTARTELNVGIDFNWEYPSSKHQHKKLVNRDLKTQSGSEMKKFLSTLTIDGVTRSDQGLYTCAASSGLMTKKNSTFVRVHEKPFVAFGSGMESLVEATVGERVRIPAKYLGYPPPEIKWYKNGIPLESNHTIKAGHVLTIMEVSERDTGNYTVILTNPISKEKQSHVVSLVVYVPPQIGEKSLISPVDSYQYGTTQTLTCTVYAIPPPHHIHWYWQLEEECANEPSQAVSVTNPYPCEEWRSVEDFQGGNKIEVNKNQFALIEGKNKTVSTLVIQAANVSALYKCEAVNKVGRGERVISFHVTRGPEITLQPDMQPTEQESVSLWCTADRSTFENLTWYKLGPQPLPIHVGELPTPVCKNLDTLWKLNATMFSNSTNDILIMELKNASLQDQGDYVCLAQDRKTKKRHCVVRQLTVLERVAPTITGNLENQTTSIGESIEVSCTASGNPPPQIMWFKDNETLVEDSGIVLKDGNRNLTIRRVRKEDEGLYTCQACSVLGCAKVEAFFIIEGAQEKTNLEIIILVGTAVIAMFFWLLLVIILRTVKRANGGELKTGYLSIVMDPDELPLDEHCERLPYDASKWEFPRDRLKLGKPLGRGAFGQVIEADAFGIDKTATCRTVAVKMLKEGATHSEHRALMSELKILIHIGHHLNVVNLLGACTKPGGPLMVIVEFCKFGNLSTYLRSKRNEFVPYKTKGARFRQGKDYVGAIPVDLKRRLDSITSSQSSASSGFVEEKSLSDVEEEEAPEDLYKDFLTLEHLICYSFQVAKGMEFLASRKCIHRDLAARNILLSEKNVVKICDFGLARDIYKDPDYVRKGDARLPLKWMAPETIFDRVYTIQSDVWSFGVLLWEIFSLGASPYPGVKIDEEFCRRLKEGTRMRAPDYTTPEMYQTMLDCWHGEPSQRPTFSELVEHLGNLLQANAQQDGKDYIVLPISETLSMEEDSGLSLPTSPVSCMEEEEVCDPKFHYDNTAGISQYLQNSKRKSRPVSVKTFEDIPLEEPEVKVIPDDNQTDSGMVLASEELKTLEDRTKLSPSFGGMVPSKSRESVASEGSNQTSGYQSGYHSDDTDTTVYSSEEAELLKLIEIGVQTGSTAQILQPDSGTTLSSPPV
T5 sequence (P23443 whole entry): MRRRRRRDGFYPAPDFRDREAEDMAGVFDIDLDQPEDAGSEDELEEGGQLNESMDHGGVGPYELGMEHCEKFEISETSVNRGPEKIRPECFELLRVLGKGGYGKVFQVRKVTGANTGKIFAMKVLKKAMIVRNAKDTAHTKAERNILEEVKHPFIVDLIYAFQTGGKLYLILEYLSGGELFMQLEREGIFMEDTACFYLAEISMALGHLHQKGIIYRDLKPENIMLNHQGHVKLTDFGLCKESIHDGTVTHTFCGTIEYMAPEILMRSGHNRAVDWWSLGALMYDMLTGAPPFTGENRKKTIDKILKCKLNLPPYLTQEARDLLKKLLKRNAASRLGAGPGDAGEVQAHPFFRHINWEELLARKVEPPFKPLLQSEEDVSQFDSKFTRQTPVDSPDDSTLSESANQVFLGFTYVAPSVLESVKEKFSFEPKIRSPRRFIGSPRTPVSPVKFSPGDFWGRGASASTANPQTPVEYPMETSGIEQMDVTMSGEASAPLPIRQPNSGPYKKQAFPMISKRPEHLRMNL
T3 sequence (O60674 whole entry): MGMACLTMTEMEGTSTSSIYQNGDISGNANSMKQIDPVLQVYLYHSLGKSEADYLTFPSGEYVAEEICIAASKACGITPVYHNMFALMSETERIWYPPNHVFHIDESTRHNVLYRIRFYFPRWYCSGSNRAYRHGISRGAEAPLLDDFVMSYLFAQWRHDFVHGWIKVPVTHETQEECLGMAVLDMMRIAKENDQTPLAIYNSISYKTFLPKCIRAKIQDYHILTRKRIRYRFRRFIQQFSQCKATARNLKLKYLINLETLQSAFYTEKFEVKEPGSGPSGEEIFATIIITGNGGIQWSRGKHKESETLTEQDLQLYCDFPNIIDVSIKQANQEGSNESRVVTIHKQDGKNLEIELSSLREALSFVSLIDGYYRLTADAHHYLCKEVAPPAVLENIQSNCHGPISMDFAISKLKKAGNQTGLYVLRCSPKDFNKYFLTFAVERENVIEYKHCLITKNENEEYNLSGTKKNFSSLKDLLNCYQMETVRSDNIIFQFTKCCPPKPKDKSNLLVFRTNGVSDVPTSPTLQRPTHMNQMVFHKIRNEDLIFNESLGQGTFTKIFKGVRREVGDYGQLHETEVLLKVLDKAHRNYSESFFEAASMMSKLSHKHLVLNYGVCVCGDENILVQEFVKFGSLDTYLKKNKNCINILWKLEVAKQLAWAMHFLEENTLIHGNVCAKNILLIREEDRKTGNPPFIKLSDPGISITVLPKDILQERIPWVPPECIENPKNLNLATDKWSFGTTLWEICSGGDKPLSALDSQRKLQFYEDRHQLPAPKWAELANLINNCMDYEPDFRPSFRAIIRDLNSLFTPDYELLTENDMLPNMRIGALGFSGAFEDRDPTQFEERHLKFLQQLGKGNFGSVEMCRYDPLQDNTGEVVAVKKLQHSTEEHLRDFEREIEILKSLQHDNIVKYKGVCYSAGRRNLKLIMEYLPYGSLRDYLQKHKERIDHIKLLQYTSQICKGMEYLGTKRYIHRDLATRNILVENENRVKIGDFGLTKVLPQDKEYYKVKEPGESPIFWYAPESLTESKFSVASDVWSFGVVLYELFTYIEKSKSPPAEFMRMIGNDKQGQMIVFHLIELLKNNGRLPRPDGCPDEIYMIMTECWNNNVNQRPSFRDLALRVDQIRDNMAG

Nc1c2c(nc3ccccc13)CCCC2 [NCGC00015054-12]
5mMGluc_INS1E SecretionMod IC50/EC50 (INS-1E cells [1]): 17.6112 µM
0.1mMGluc_INS1E SecretionMod Act IC50/EC50 (INS-1E cells [2]): > 33.33 µM

CN(C)CC[C@@H](c1ccc(Br)cc1)c1ccccn1.O=C(O)/C=C\C(=O)O [NCGC00015146-11]
5mMGluc_INS1E SecretionMod IC50/EC50 (INS-1E cells [1]): 3.76 µM
0.1mMGluc_INS1E SecretionMod Act IC50/EC50 (INS-1E cells [2]): 6.368 µM

c1cc(CN2CCCCC2)cc(OCCCNc2nc3ccccc3s2)c1 [NCGC00015957-06]
5mMGluc_INS1E SecretionMod IC50/EC50 (INS-1E cells [1]): > 11.11 µM
0.1mMGluc_INS1E SecretionMod Act IC50/EC50 (INS-1E cells [2]): > 33.33 µM

NC(=NCCCCCCN=C(N)/N=C(\N)Nc1ccc(Cl)cc1)/N=C(\N)Nc1ccc(Cl)cc1 [NCGC00016246-09]
IC50/EC50, WntCondMedia_bCatenin C2C12 (assay number 5) [3]: > 20 µM
IC50/EC50, Basal_Viability ATP SW480 (assay number 24) (SW480): 5.6664 µM
IC50/EC50, hNCI-H716 GLP1 Secretion (assay number 12) (NCI-H716 cells): 26.2027 µM
IC50/EC50, Basal_Viability ATP RKO (assay number 29) (RKO): 4.5801 µM
IC50/EC50, mSTC-1 GLP1 Secretion (assay number 13) (STC-1 cell line): 10.3287 µM
IC50/EC50, hGSK3b LANCE (assay number 34) (hGSK3b): > 20 µM
IC50/EC50, hKDR LANCE (assay number 32) (hKDR): > 20 µM
IC50/EC50, VEGF_ADSC\ECFC Angio CD31 TubeArea (assay number 2) [4]: 1.3455 µM
IC50/EC50, 5mMGluc_INS1E SecretionMod (assay number 8) (INS-1E cells [1]): 25.1792 µM
IC50/EC50, Basal_Viability ATP SNU-C1 (assay number 30) (SNU-C1): 0.4386 µM
IC50/EC50, Basal_Viability ATP HCT116 (assay number 25) (HCT116): 4.3853 µM
IC50/EC50, WntCondMedia_Alk Phos C2C12 (assay number 6) [5]: > 20 µM
IC50/EC50, hJAK2 LANCE (assay number 33) (hJAK2): > 20 µM
IC50/EC50, Basal_Viability ATP Colo 320 (assay number 27) (Colo320): 5.1631 µM
IC50/EC50, hFLT3 LANCE (assay number 35) (hFLT3): > 20 µM
IC50/EC50, Hela CellCycMod PI 2N (assay number 14) (HeLa cells): > 10 µM
IC50/EC50, Hela CellCycMod PI 4N (assay number 16) (HeLa cells): > 10 µM
IC50/EC50, Hela CellCycMod PI Cell Number (assay number 18) (HeLa cells): 6.7072 µM
IC50/EC50, Hela CellCycMod PI MI (assay number 17) (HeLa cells): > 10 µM
IC50/EC50, Basal_Viability ATP HT-29 (assay number 28) (HT-29): 3.7852 µM
IC50/EC50, Basal_Viability ATP DLD-1 (assay number 23) (DLD-1): 2.8031 µM
IC50/EC50, VEGF_ADSC\ECFC Angio Hoechst NucArea (assay number 3) [6]: > 10 µM
IC50/EC50, hp70S6K1 LANCE (assay number 31) (hp70S6K1 (RPS6KB1)): > 20 µM

Cl.N[C@@H]1C[C@H]1c1ccccc1 [NCGC00016598-02]
5mMGluc_INS1E SecretionMod IC50/EC50 (INS-1E cells [1]): > 33.33 µM
0.1mMGluc_INS1E SecretionMod Act IC50/EC50 (INS-1E cells [2]): > 33.33 µM

COc1cc(C(=O)OCCCN2CCCN(CCCOC(=O)c3cc(OC)c(OC)c(OC)c3)CC2)cc(OC)c1OC [NCGC00016747-07]
5mMGluc_INS1E SecretionMod IC50/EC50 (INS-1E cells [1]): 10.1571 µM
0.1mMGluc_INS1E SecretionMod Act IC50/EC50 (INS-1E cells [2]): 18.0188 µM

COC(=O)Nc1nc2ccc(Sc3ccccc3)cc2[nH]1 [NCGC00016855-10]
IC50/EC50, WntCondMedia_bCatenin C2C12 (assay number 5) [3]: 4.8413 µM
IC50/EC50, Basal_Viability ATP SW480 (assay number 24) (SW480): > 20 µM
IC50/EC50, hNCI-H716 GLP1 Secretion (assay number 12) (NCI-H716 cells): > 40 µM
IC50/EC50, Basal_Viability ATP RKO (assay number 29) (RKO): 0.001 µM
IC50/EC50, mSTC-1 GLP1 Secretion (assay number 13) (STC-1 cell line): > 20 µM
IC50/EC50, hGSK3b LANCE (assay number 34) (hGSK3b): > 20 µM
IC50/EC50, hKDR LANCE (assay number 32) (hKDR): > 20 µM
IC50/EC50, VEGF_ADSC\ECFC Angio CD31 TubeArea (assay number 2) [4]: 0.2067 µM
IC50/EC50, Basal_Viability ATP SNU-C1 (assay number 30) (SNU-C1): > 20 µM
IC50/EC50, Basal_Viability ATP HCT116 (assay number 25) (HCT116): 0.001 µM
IC50/EC50, WntCondMedia_Alk Phos C2C12 (assay number 6) [5]: 0.4382 µM
IC50/EC50, hJAK2 LANCE (assay number 33) (hJAK2): > 20 µM
IC50/EC50, Basal_Viability ATP Colo 320 (assay number 27) (Colo320): > 20 µM
IC50/EC50, hFLT3 LANCE (assay number 35) (hFLT3): > 20 µM
IC50/EC50, Hela CellCycMod PI 2N (assay number 14) (HeLa cells): 0.2042 µM
IC50/EC50, Hela CellCycMod PI 4N (assay number 16) (HeLa cells): 0.195 µM
IC50/EC50, Hela CellCycMod PI Cell Number (assay number 18) (HeLa cells): 0.0097 µM
IC50/EC50, Hela CellCycMod PI MI (assay number 17) (HeLa cells): 0.2276 µM
IC50/EC50, Hela CellCycMod PI S Phase (assay number 15) (HeLa cells; S Phase): > 10 µM
IC50/EC50, Basal_Viability ATP HT-29 (assay number 28) (HT-29): > 20 µM
IC50/EC50, Basal_Viability ATP DLD-1 (assay number 23) (DLD-1): 0.06726 µM
IC50/EC50, VEGF_ADSC\ECFC Angio Hoechst NucArea (assay number 3) [6]: > 10 µM
IC50/EC50, GSK3b inh pretreated_Viability ATP HCT116 (assay number 26) [7]: 3 nM
IC50/EC50, hp70S6K1 LANCE (assay number 31) (hp70S6K1 (RPS6KB1)): > 20 µM
